Legend:
[1] = tested on: body of the breast; experiment: clinical study, sonographic examination of the breast; format: in vivo, patients (women)
Protocol: In a clinical study, the reduction of the body of the breast was detected sonographically in 21 patients ranging in age from 18 to 52 years. In each case, 10 mg of dienogest were administered orally as a tablet over a period of 24 weeks at intervals of 12 hours. The daily dose therefore amounted to 20 mg of dienogest. The breast was examined sonographically before the treatment as well as after 12 and 24 weeks of continuous therapy.

[2] = blood fat values on administration of high dosages of dienogest; format: in vivo

Question: What does the source list for `C[C@]12CCC3=C4CCC(=O)C=C4CC[C@H]3[C@@H]1CC[C@@]2(O)CC#N` [dienogest, 17-hydroxy-3-oxo-19-nor-17α-pregna-4,9-diene-21-nitrile]?
Answer: body of the breast (detected sonographically) ([1]; 21 patients aged 18 to 52 years, 10 mg orally as tablet every 12 hours (20 mg daily) over 24 weeks, on the average, in all women): decreased significantly; symptoms of mastopathic changes, such as duct ectasia ([1]; 21 patients, 10 mg orally every 12 hours (20 mg daily) over 24 weeks): receded completely; HDL cholesterol level [2]: increased

From US6670350B1, “Method of administering dienogest in high dosages to reduce the body of the breast and pharmaceutical composition for same” (JenaPharm GmbH & Co. KG, priority 1999, dated 2003)
